# Source: patent US6610890B1, “Aldose reductase inhibitors and pharmaceutical compositions” (O.N.C.E.-(Organizacion Nacional De Cicgos), priority 1998, dated 2003)
# Where two headings read alike, the source gives them in different places.
# Key:
# [1] = target: T1, Human recombinant aldose reductase (Homo sapiens, UniProt P15121); assay: Inhibition of human recombinant aldose reductase (NADPH disappearance at 340 nm); type: biochemical
# T1 construct: made in house; host or cells: Sf9 insect cells (Spodoptera frugiperda) infected with recombinant baculovirus AcAR
# Method: Human recombinant aldose reductase was obtained and purified as previously described^21 with slight modifications. Briefly, Sf9 insect cells (Spodoplera frugiperda, from Pharmingen) were cultured in Grace's medium (Gibco) at 27° C. Then, cultures were infected with the purified recombinant baculovirus AcAR^22 that was kindly provided by Dr. C. Nishimura (National Children's Medical Research Center, Tokyo, Japan). The enzyme released into the culture medium was purified by affinity chromatography (Matrex Gel Orange A, Amicon). This Aldose Reductase was kept at −20° C. in 50 mM sodium phosphate, pH 7.0, 5 mM dithiotreitol and 50% glycerol.
# Recombinant Aldose Reductase activity was determined according to the method previously described^21. The assay was carried out in a 96-well microtiter plate, at 37° C. in 100 mM sodium phosphate buffer, pH 6.2, 400 mM (NH4)2SO4, 0.1 mM NADPH and 5 mU/ml recombinant aldose reductase (1 mU of activity was defined as a change in absorbance of 0.012 units per minute). The reaction was initiated by addition of 10 mM glyceraldehyde and the enzymatic activity measured as the NADPH disappearance at 340 nm in a plate reader (MR-5000, Dynatech). Compounds were dissolved in DMSO (1% final concentration).
# [2] = test system: cells from rabbit cornea (ATCC CCL 60); assay: Inhibition of intracellular accumulation of sorbitol in rabbit cornea cells; type: cell-based; details: Oryctolagus cuniculus, read-out: INHIBITION, IC50 Sorbitol Accumulation
# Method: For this assay, cells from rabbit cornea (ATCC CCL 60) were used as previously described^23. In summary, 10×10^6 cells were incubated in 2.5 ml of Minimum Essential Medium (JRH Biosciences), 0.5% foetal calf serum and 50 mM glucose for 16 h at 37° C. in presence of 5% CO2. Compounds under study were added in DMSO whose final concentration was 1%. The sorbitol accumulated in the cells was extracted by lysis with 8% perchloric acid and neutralised with 2N KOH^24. Sorbitol quantitation was carried out using a calorimetric test (D-Sorbitol/Xylitol, Boehringer Mannheim).
# [3] = recombinant enzyme, 37° C., pH 6.2, 10 mM glyceraldehyde, 0.1 mM NADPH, read-out: INHIBITION, IC50 Aldose Reductase
# [4] = rabbit cornea cells, 50 mM glucose, 16 h at 37° C.
smiles,measurement,setting,value
"Oc1c(Oc2cc(Br)c(Br)c(Br)c2O)cc(Br)c(Br)c1Br [A-I, 3,3′,4,4′,5,5′-hexabromo-2,2′-dihydroxy-oxydiphenyl]",IC50,[1]; [3],4 µM
same,melting point,,188 to 190 °C
same,IC50,[2]; [4],1000 nM
"Oc1c(Br)cc(Oc2cc(Br)c(Br)c(Br)c2O)c(O)c1Br [A-II, 3,3′,4′,5,5′-pentabromo-2,2′,4-trihydroxy-oxydiphenyl]",IC50,[1],2 µM
same,melting point,,207 to 209 °C
same,IC50,[2]; [4],8000 nM
"Oc1c(Oc2cc(Cl)c(Cl)c(Cl)c2O)cc(Cl)c(Cl)c1Cl [A-III, 3,3′,4,4′,5,5′-Hexachloro-2,2′-dihydroxy-oxydiphenyl]",IC50,[1],5 µM
same,IC50,[2]; [4],240 nM
"O=C(c1cc(Br)cc(Br)c1O)c1cc(Br)cc(Br)c1O [A-IV, 3,3′,5,5′-tetrabromo-2,2′-dihydroxybenzophenone]",IC50,[1]; [3],4 µM
same,IC50,[2]; [4],5000 nM
"Oc1c(Br)c(Br)c(-c2c(Br)c(Br)c(O)c(Br)c2Br)c(Br)c1Br [A-V, 2,2′,3,3′,5,5′,6,6′-Octabromo-4,4′-biphenol]",IC50,[1]; [3],1 µM
same,melting point,,282 °C
same,IC50,[2]; [4],> 12000 nM
"Oc1c(Cl)c(Cl)c(-c2c(Cl)c(Cl)c(O)c(Cl)c2Cl)c(Cl)c1Cl [A-VI, 2,2′,3,3′,5,5′,6,6′-Octachloro-4,4′-biphenol]",IC50,[1]; [3],11 µM
same,melting point,,94 to 96 °C
same,IC50,[2]; [4],220 nM
"Oc1c(F)c(F)c(-c2c(F)c(F)c(O)c(F)c2F)c(F)c1F [A-VII, 2,2′,3,3′,5,5′,6,6′-Octafluoro-4,4′-biphenol hydrate]",IC50,[1]; [3],0.22 µM
same,IC50,[2]; 16 h,420 nM
